Results from US9783536B2, “Nitrogen-containing heterocyclic compound or salt thereof” (FUJIFILM Corporation, priority 2013, dated 2017).
Read-outs that look alike come from different tables or passages of the source.

Key:
[1] = biological target: T1, GST fusion human ERK2 protein (Homo sapiens, UniProt P28482); assay: ERK2 enzyme assay (2); format: biochemical; settings: read-out: ERK2 enzyme inhibitory activity (2)
T1 construct: purchased Carna Biosciences, Inc; host or cells: E. coli expression system
T1 sequence (P28482 whole entry, the tested form may be a part): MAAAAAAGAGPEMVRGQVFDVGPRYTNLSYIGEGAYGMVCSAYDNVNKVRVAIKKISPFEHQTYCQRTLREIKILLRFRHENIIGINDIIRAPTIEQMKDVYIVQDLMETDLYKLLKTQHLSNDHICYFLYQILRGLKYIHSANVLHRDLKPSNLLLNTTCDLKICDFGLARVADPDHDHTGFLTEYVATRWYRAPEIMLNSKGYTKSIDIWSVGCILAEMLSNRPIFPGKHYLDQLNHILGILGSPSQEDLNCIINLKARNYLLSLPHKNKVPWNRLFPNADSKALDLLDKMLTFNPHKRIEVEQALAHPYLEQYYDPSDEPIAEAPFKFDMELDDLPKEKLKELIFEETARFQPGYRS
Summary of the method: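 GST-tagged human ERK2 expressed in E. coli (1.25 nmol/L) was preincubated with compound for 15 min at room temperature in pH 7.5 Hepes buffer with MgCl2, DTT and Brij35. Reaction with FL-Peptide 8 (final 4.25 μmol/L) and ATP (final 1 mmol/L) ran 120 min at 25 °C; EDTA stopped it, and phosphorylated peptide was quantified by mobility-shift separation to derive IC50.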

human PI3Kα protein = biological target: T2, human PI3Kα protein (Homo sapiens, UniProt P42336); assay: PI3Kα enzyme assay (ADP-Glo); format: biochemical; settings: read-out: PI3Kα enzyme inhibitory activity
T2 construct: purchased Carna Biosciences, Inc; host or cells: baculovirus expression system
T2 sequence (P42336 whole entry): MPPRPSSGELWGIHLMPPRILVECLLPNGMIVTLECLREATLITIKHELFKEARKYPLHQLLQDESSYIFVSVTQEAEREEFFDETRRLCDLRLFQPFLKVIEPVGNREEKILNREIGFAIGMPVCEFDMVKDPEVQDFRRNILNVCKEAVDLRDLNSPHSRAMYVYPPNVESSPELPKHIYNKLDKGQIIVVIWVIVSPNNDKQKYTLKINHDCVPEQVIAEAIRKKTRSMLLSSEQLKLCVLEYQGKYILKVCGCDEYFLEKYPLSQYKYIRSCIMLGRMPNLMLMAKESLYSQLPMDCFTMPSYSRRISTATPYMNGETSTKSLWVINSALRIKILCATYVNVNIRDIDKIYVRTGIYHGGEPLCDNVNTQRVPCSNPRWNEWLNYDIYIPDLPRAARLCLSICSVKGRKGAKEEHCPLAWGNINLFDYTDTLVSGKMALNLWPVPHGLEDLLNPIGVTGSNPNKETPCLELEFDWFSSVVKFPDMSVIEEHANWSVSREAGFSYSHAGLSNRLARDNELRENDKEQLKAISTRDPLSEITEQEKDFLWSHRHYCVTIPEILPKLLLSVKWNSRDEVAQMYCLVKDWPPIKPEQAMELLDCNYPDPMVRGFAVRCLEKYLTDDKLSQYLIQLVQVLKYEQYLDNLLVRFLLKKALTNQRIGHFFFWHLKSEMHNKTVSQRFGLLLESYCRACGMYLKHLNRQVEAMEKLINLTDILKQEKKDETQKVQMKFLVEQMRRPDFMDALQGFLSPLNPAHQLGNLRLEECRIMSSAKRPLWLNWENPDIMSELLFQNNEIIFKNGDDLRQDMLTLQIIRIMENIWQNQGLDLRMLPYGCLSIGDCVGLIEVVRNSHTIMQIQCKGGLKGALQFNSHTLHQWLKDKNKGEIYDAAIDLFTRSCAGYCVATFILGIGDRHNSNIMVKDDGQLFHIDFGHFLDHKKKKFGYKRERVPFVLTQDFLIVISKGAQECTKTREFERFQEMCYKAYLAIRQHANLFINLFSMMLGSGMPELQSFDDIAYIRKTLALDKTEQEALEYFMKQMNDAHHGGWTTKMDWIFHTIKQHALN
T2 sequence (P27986 whole entry partner): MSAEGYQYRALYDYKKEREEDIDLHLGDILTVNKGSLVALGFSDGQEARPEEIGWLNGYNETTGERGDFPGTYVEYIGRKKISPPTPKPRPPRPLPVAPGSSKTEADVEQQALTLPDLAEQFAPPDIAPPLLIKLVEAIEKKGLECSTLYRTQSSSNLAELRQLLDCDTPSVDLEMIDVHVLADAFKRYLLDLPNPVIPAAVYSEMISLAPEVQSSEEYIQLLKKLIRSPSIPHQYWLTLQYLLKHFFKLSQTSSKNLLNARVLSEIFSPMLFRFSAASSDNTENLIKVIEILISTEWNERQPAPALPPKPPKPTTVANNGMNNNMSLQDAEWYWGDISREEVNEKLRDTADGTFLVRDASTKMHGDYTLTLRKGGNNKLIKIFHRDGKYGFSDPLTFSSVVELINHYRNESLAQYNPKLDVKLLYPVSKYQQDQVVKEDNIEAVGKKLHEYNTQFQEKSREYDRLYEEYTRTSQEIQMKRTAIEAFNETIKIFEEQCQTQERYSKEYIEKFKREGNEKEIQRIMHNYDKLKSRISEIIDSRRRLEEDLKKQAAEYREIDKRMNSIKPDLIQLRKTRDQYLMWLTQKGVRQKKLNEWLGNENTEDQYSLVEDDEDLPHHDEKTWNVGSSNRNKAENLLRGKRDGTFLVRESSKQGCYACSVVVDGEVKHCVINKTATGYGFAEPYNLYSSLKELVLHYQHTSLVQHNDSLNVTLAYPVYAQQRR
Summary of the method: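 Biotinylated human PI3Kα (baculovirus-expressed, 4.5 nmol/L) pre-incubated 15 min with compound in Tris-HCl pH 7.5, MgCl2, BSA; reaction 60 min at 25° C with 50 μmol/L PIP2 and 100 μmol/L ATP final. ADP quantified by ADP-Glo luminescence; IC50 calculated.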

IC50 ([1]; ERK2 enzyme assay (2)) [nM]	IC50 (human PI3Kα protein) [nM]	IC50 [1] [nM]	SMILES
< 1000	< 1000		COC(CN1CCOCC1)Cn1cc(-c2cnc3ccc(Nc4cc(C(C)C)cnn4)nc3c2)cn1 (centres unmarked) [Example 0730]
1000 to 10000	1000 to 10000		CC(C)c1cnnc(Nc2ccc3ncc(C(=O)NCCO)cc3n2)c1 [Example 0655, N-(2-hydroxyethyl)-6-((5-isopropylpyridazin-3-yl)amino)-1,5-naphthyridine-3-carboxamide]
< 1000	< 1000		CC(C)c1cnnc(Nc2ccc3ncc(-c4cnn(CCCN(C)CC(N)=O)c4)cc3n2)c1 [Example 0671]
< 1000	< 1000		CC(C)c1cnnc(Nc2ccc3ncc(-c4cnn(Cc5ccccc5[N+](=O)[O-])c4)cc3n2)c1 [Example 0703, N-(5-isopropylpyridazin-3-yl)-7-(1-(2-nitrobenzyl)-1H-pyrazol-4-yl)-1,5-naphthyridine-2-amine]
	< 1000	< 1000	CC(C)c1cnnc(Nc2ccc3ncc(-c4cn(C)nc4COC4COC4)cc3n2)c1 [Example 0911, N-(5-isopropylpyridazin-3-yl)-7-(1-methyl-3-((oxetan-3-yloxy)methyl)-1H-pyrazol-4-yl)-1,5-naphthyridine-2-amine]
< 1000	< 1000		CC(C)c1cnnc(Nc2ccc3ncc(-c4cnc(N5CCN(C)CC5)s4)cc3n2)c1 [Example 0498, N-(5-isopropylpyridazin-3-yl)-7-(2-(4-methylpiperazin-1-yl)thiazol-5-yl)-1,5-naphthyridine-2-amine]
< 1000	1000 to 10000		Cc1nc2ccc(Nc3cc(C(C)C)cnn3)nc2cc1-c1cnn(C)c1 [Example 0849, N-(5-isopropylpyridazin-3-yl)-6-methyl-7-(1-methyl-1H-pyrazol-4-yl)-1,5-naphthyridine-2-amine]
< 1000	< 1000		COC1(C)CN(CCCn2cc(-c3cnc4ccc(Nc5cc(C(C)C)cnn5)nc4c3)cn2)C1 [Example 0794, N-(5-isopropylpyridazin-3-yl)-7-(1-(3-(3-methoxy-3-methylazetidin-1-yl)propyl)-1H-pyrazol-4-yl)-1,5-naphthyridine-2-amine]
< 1000	< 1000		CC(C)c1cnnc(Nc2ccc3ncc(-c4cnn(CCCN(C)CC(=O)OC(C)(C)C)c4)cc3n2)c1 [Example 0661]
< 1000	< 1000		Cc1nn(C)cc1-c1cnc2ccc(Nc3cc(C4(C)CC4)cnn3)nc2c1 [Example 0885, 7-(1,3-Dimethyl-1H-pyrazol-4-yl)-N-(5-(1-methylcyclopropyl)pyridazin-3-yl)-1,5-naphthyridine-2-amine]
< 1000	< 1000		COC1CN(c2cnc3ccc(Nc4cc(C(C)C)cnn4)nc3c2)C1 [Example 0853]
< 1000	< 1000		CC(C)c1cnnc(Nc2ccc3ncc(-c4ccnc(N)n4)cc3n2)c1 [Example 0766]
< 1000	< 1000		Cc1nn(C)cc1-c1cnc2ccc(Nc3cc(C4CCOCC4)cnn3)nc2c1 [Example 0760, 7-(1,3-Dimethyl-1H-pyrazol-4-yl)-N-(5-(tetrahydro-2H-pyran-4-yl)pyridazin-3-yl)-1,5-naphthyridine-2-amine]
< 1000	1000 to 10000		Cc1n[nH]c(C)c1-c1cnc2ccc(Nc3cc(C(C)C)cnn3)nc2c1 [Example 0621]
	< 1000	< 1000	CN(C)S(=O)(=O)Cc1cnnc(Nc2ccc3ncc(-c4cnn(C)c4)cc3n2)c1 [Example 0924]
< 1000	< 1000		CC(C)c1cnnc(Nc2ccc3ncc(-c4cnn(CCC5OCCCO5)c4)cc3n2)c1 [Example 0641, 7-(1-(2-(1,3-Dioxan-2-yl)ethyl)-1H-pyrazol-4-yl)-N-(5-isopropylpyridazin-3-yl)-1,5-naphthyridine-2-amine]
< 1000	< 1000		CC(C)c1cnnc(Nc2ccc3ncc(-c4cn(C)nc4COc4cccc(OCC(=O)N(C)C)c4)cc3n2)c1 [Example 0810]
< 1000	1000 to 10000		CC(C)c1cnnc(Nc2ccc3ncc(-c4cccn(C)c4=O)cc3n2)c1 [Example 0595, 3-(6-((5-Isopropylpyridazin-3-yl)amino)-1,5-naphthyridin-3-yl)-1-methylpyridin-2(1H)-one]
< 1000	< 1000		CC(C)c1cnnc(Nc2ccc3ncc(-c4cnn(CCCN5CCN(c6ccccn6)CC5)c4)cc3n2)c1 [Example 0444]
< 1000	< 1000		CC(C)c1cnnc(Nc2ccc3ncc(-c4cnn(CCN5CCC5)c4)cc3n2)c1 [Example 0611]
	< 1000	1000 to 10000	Cc1nn(C)cc1-c1cnc2ccc(Nc3cn(C(C)C)cn3)nc2c1 [Example 0950, 7-(1,3-dimethyl-1H-pyrazol-4-yl)-N-(1-isopropyl-1H-imidazol-4-yl)-1,5-naphthyridine-2-amine]
	< 1000	< 1000	COCCN(C)c1nn(C)cc1-c1cnc2ccc(Nc3cc(C(C)C)cnn3)nc2c1 [Example 0945]

IC50 ([1]; ERK2 enzyme assay (2)) [nM]	IC50 (human PI3Kα protein) [nM]	IC50 [1] [nM]	SMILES
	< 1000	< 1000	CCOC(C)c1cnnc(Nc2ccc3ncc(-c4cn(C)nc4C)cc3n2)c1 (centres unmarked) [Example 0921]
< 1000	< 1000		CC(C)c1cnnc(Nc2ccc3ncc(-c4cnn(CCOC5CNC5)c4)cc3n2)c1 [Example 0740, 7-(1-(2-(azetidin-3-yloxy)ethyl)-1H-pyrazol-4-yl)-N-(5-isopropylpyridazin-3-yl)-1,5-naphthyridine-2-amine]
< 1000	1000 to 10000		CC(C)c1cnnc(Nc2ccc3ncc(N4CC(OCC(F)F)C4)cc3n2)c1 [Example 0868]
< 1000	< 1000		Cc1c(-c2cnn(C)c2)cnc2ccc(Nc3cc(C(C)C)cnn3)nc12 [Example 0850, N-(5-isopropylpyridazin-3-yl)-8-methyl-7-(1-methyl-1H-pyrazol-4-yl)-1,5-naphthyridine-2-amine]
	1000 to 10000	< 1000	CC(C)c1cnnc(Nc2ccc3ncc(Br)cc3n2)c1 [Example 0929, 7-bromo-N-(5-isopropylpyridazin-3-yl)-1,5-naphthyridine-2-amine]
	< 1000	< 1000	CC(C)c1cnnc(Nc2ccc3ncc(-c4cn(C)nc4NC4CCCC4)cc3n2)c1 [Example 0948]
< 1000	< 1000		Cc1ccc(-c2nn(C)cc2-c2cnc3ccc(Nc4cc(C(C)C)cnn4)nc3c2)cc1 [Example 0767, N-(5-isopropylpyridazin-3-yl)-7-(1-methyl-3-(4-methylphenyl)-1H-pyrazol-4-yl)-1,5-naphthyridine-2-amine]
< 1000	1000 to 10000		CC(C)c1cnnc(Nc2ccc3ncc(N4CCC(CO)CC4)cc3n2)c1 [Example 0511, (1-(6-((5-Isopropylpyridazin-3-yl)amino)-1,5-naphthyridin-3-yl)piperidin-4-yl)methanol]
< 1000	< 1000		CC(C)c1cnnc(Nc2ccc3ncc(-c4cnn(Cc5cccc([N+](=O)[O-])c5)c4)cc3n2)c1 [Example 0711]
< 1000	< 1000		CC(=O)Nc1ccc(-c2nn(C)cc2-c2cnc3ccc(Nc4cc(C(C)C)cnn4)nc3c2)cn1 [Example 0459]
< 1000	< 1000		CC(C)c1cnnc(Nc2ccc3ncc(-c4cnn(C5CC5)c4)cc3n2)c1 [Example 0563, 7-(1-Cyclopropyl-1H-pyrazol-4-yl)-N-(5-isopropylpyridazin-3-yl)-1,5-naphthyridine-2-amine]
< 1000	< 1000		CC(C)Cc1cnnc(Nc2ccc3ncc(-c4cnn(C)c4)cc3n2)c1 [Example 0571]
< 1000	< 1000		CC(C)c1cnnc(Nc2ccc3ncc(-c4cn(C)nc4NCc4ccncc4)cc3n2)c1 [Example 0835]
< 1000	1000 to 10000		COc1ccc(-c2cnc3ccc(Nc4cc(C(C)C)cnn4)nc3c2)cn1 [Example 0590]
< 1000	< 1000		Cn1cc(-c2cnc3ccc(Nc4cc(C(C)(C)CO)cnn4)nc3c2)cn1 [Example 0560, 2-methyl-2-(6-((7-(1-methyl-1H-pyrazol-4-yl)-1,5-naphthyridin-2-yl)amino)pyridazin-4-yl)propan-1-ol]
< 1000	< 1000		CC(C)c1cnnc(Nc2ccc3ncc(-c4cnn(CCCN5CCCCC5C(F)(F)F)c4)cc3n2)c1 (centres unmarked) [Example 0672]
	< 1000	< 1000	CC(C)c1cnnc(Nc2ccc3ncc(-c4cnn(C)c4)c(Cl)c3n2)c1 [Example 0952, 8-Chloro-N-(5-isopropylpyridazin-3-yl)-7-(1-methyl-1H-pyrazol-4-yl)-1,5-naphthyridine-2-amine]
10000 to 50000	< 1000		CC(C)c1ccnc(Nc2ccc3ncc(-c4cnn(C)c4)cc3n2)c1 [Example 0551, N-(4-isopropylpyridin-2-yl)-7-(1-methyl-1H-pyrazol-4-yl)-1,5-naphthyridine-2-amine]
< 1000	< 1000		CCn1cc(-c2cnc3ccc(Nc4cc(C(C)C)cnn4)nc3c2)ccc1=O [Example 0596, 1-ethyl-5-(6-((5-isopropylpyridazin-3-yl)amino)-1,5-naphthyridin-3-yl)pyridin-2(1H)-one]
< 1000	1000 to 10000		CNC(=O)c1cnc2ccc(Nc3cc(C(C)C)cnn3)nc2c1 [Example 0642]
< 1000	1000 to 10000		CC(C)c1cnnc(Nc2ccc3ncc(-c4cnn(C(C)(C)C)c4)cc3n2)c1 [Example 0481]
